Measurements from patent publication US6559185B2, “Nitromethyl ketone compounds having aldose reduction inhibiting properties and methods for their use” (Merck Patent GmbH, priority 1997, dated 2003).

What was measured:
[1] = system: sorbitol level in the sciatic nerves; experiment: Study in vivo: reduction of sorbitol accumulation in sciatic nerves of streptozotocin-diabetic rats; details: 10 mg/kg/d oral, 4, 30 and 52 h after streptozotocin (60 mg/kg i.v.); sciatic nerve sorbitol 18 h after last dose; diabetic male Wistar rats
Method: 2) Study in Vivo: Reduction of Sorbitol Accumulation
200 to 250 g male Wistar rats are made diabetic by intravenous injection of streptozotocin (60 mg/kg). They then receive an oral treatment of the test products, in the form of a suspension, 4 hours, 30 hours and 52 hours after the injection of streptozotocin. Eighteen hours after the last oral treatment, the rats are stunned and decapitated and then their sciatic nerves are removed. After extraction, the sorbitol level in the nerves is measured according to the enzymatic method described by H. U. BERGMEYER (Methods of enzymatic analysis. H. U. BERGMEYER ed., Academic Press New York 3, p. 1323, 1974).
The percentage protection is calculated for each product relative to the batch of diabetic animals taking into account the sorbitol level in the sciatic nerves of nondiabetic rats.

aldose reductase = biological target: T1, aldose reductase (Rattus norvegicus, UniProt P07943); experiment: Study in vitro: inhibition of aldose reductase; type: biochemical; details: enzyme from male Wistar rat crystalline lenses; L-glyceraldehyde, NADPH disappearance at 340 nm
T1 construct: The aldose reductase used is obtained from male Wistar rat crystalline lenses; from tissue; host or cells: male Wistar rat crystalline lenses
Method: 1) Study in Vitro: Inhibition of Aldose Reductase
The aldose reductase used is obtained from male Wistar rat crystalline lenses according to a modification of the method of S. HAYMAN et al. (Journal of Biological Chemistry 240, p., 877, 1965). The enzymatic extract is diluted in a phosphate buffer in the presence of NADPH and various concentrations of the test products. The reaction is initiated, with L-glyceraldehyde and the reaction rate is measured by monitoring the disappearance of NADPH by spectrophotometry at 340 nm. The reaction rate is calculated for each product concentration and then the concentration necessary for a 50% reduction in the reaction rate (IC50) is evaluated by linear interpolation.

| Compound | IC50 (aldose reductase) | melting point | Protection against increase in sorbitol after administration 10 mg/kg/d (%) [1] |
| --- | --- | --- | --- |
| O=C(C[N+](=O)[O-])c1ccccc1OC(F)(F)F [Example 1, Nitromethyl 2-Trifluoromethoxyphenyl Ketone] | 41 nM | – | 70% |
| CCc1ccccc1C(=O)C[N+](=O)[O-] | – | 62 to 63 °C | – |
| CCOc1ccccc1C(=O)C[N+](=O)[O-] | – | 145 to 148 °C | – |
| N#Cc1ccccc1C(=O)C[N+](=O)[O-] | – | 147 to 149 °C | – |
| CC(C(=O)Nc1ccc(C(=O)C[N+](=O)[O-])c(Cl)c1)c1ccccc1 (stereo not drawn) [Example 23, N-[3-Chloro-4-nitromethylcarbonylphenyl]-2-phenylpropaneamide] | 7 nM | 136 to 137 °C | 40% |
| O=C(Cc1ccccc1Cl)Nc1ccc(C(=O)C[N+](=O)[O-])c(Cl)c1 [Example 28, 2-Chloro-N-[3-chloro-4-nitromethylcarbonylphenyl]phenylacetamide] | 7 nM | – | 58% |
| O=C(C[N+](=O)[O-])c1ccccc1C(F)(F)F | – | 55 to 57 °C | – |
| CC(C)Oc1ccccc1C(=O)C[N+](=O)[O-] | – | 78 to 80 °C | – |
| O=C(Cc1ccccc1)Nc1ccc(C(=O)C[N+](=O)[O-])c(Cl)c1 [Example 24, N-[3-Chloro-4-nitromethylcarbonylphenyl]phenylacetamide] | 7 nM | 121 to 124 °C | 45% |
| CCCCCC(=O)Nc1ccc(C(=O)C[N+](=O)[O-])c(Cl)c1 [Example 20, N-[3-chloro-4-nitromethylcarbonylphenyl]hexaneamide] | – | 60 to 63 °C | – |
| O=C(Cc1ccccc1C(F)(F)F)Nc1ccc(C(=O)C[N+](=O)[O-])c(Cl)c1 [Example 30, N-[3-Chloro-4-nitromethylcarbonylphenyl]-2-trifluoromethylphenylacetamide] | 7 nM | 160 to 162 °C | 61% |

More lines, main results first:

| IC50 (aldose reductase) | melting point | Compound | Protection against increase in sorbitol after administration 10 mg/kg/d (%) [1] |
| --- | --- | --- | --- |
| – | 125 to 127 °C | Cc1ccccc1CC(=O)Nc1ccc(C(=O)C[N+](=O)[O-])cc1Br [Example 60, N-[2-Bromo-4-nitromethylcarbonylphenyl]-2-methylphenylacetamide] | – |
| 6 nM | – | Cc1ccccc1CC(=O)Nc1ccc(C(=O)C[N+](=O)[O-])c(C)c1 [Example 59, N-[3-Methyl-4-nitromethylcarbonylphenyl]-2-methylphenylacetamide] | 52% |
| – | 140 to 142 °C | CC(=O)Nc1cccc(C(=O)C[N+](=O)[O-])c1Cl [Example 34, N-[2-Chloro-3-nitromethylcarbonylphenyl]acetamide] | – |
| – | 77 to 78 °C | O=C(C[N+](=O)[O-])c1ccc(Sc2ccccc2)cc1Cl [Example 64, Nitromethyl 2-Chloro-4-phenylthiophenyl Ketone] | – |
| – | 152 to 154 °C | O=C(C[N+](=O)[O-])c1cc(NS(=O)(=O)c2ccccc2)ccc1Cl [Example 38, N-[4-Chloro-3-nitromethylcarbonylphenyl]benzenesulfonamide] | – |
| 7 nM | – | Cc1ccccc1CC(=O)Nc1ccc(C(=O)C[N+](=O)[O-])c(Cl)c1 [Example 43, N-[3-Chloro-4-nitromethylcarbonylphenyl]-2-methylphenylacetamide] | 70% |
